Experimental data published in publication PMC2675279 (The Journal of general virology, 2009).

System: splenocytes from BALB/c mice infected with tk--HSV-2
Assay: IFN-γ ELISPOT, splenocytes after intravaginal tk--HSV-2 infection
Type: cell-based
Conditions: splenocytes from individual BALB/c mice after non-lethal intravaginal infection with live attenuated HSV-2, single peptides at 1 μg mL^-1 (Concanavalin A 2.5 μg mL^-1), means of duplicates

Substance: Concanavalin A [reference compound]
- SFU per 10^6 responder cells, tk--HSV-2 infected mice: TNTC ^‡

Substance: YAGRMTYIATGAL [UL47 389-401]
- SFU per 10^6 responder cells, tk--HSV-2 infected mice: 43 SFU per 10^6 responder cells

Substance: HTALATVTLKYAL [UL47 509-521]
- SFU per 10^6 responder cells, tk--HSV-2 infected mice: 25 SFU per 10^6 responder cells

Substance: LLYWPGVRALLGR [UL47 369-381]
- SFU per 10^6 responder cells, tk--HSV-2 infected mice: 21 SFU per 10^6 responder cells
